# Assay results reported in patent publication US20040082591A1, “Therapeutic heterocyclic compounds” (priority 2001, published 2004).
# Test system: not given
# Experiment: not given
# Conditions: not given
row,SMILES,melting point
1,"CN1CCN(c2cccc3c2OC(C(=O)Nc2ccc(N4CCOCC4)cc2)CC3)CC1 (racemic) [Example 75, Racemic-8-(4-Methyl-piperazin-1-yl)-chroman-2-carboxylic acid (4-morpholin-4-yl-phenyl)-amide]",215 to 216 °C
2,"CN1CCN(c2cccc3c2OC(C(=O)Nc2ccc(N4CCOCC4)cc2)CC3=O)CC1 (racemic) [Example 78, racemic-8-(4-methyl-piperazin-1-yl)-4-oxo-chroman-2-carboxylic acid (4-morpholin-4-yl-phenyl)-amide]",215 to 216 °C
3,"CN1CCN(c2cccc3c2OC(C(=O)Nc2ccc(N4CCOCC4)cc2)CC3=O)CC1 (single isomer, unassigned) [Example 79, 8-(4-Methyl-piperazin-1-yl)-4-oxo-chroman-2-carboxylic Acid (4-morpholin-4-yl-phenyl)-amide]",216 °C (dec.)
4,"CN1CCN(c2cccc3c2OC(C(=O)Nc2ccc(N4CCOCC4)cc2)CC3=O)CC1 (single isomer, unassigned) [Example 80, 8-(4-Methyl-piperazin-1-yl)-4-oxo-chroman-2-carboxylic Acid (4-morpholin-4-yl-phenyl)-amide]",215 °C (dec.)
5,"CN1CCN(c2cccc3c2OC(C(=O)Nc2ccc(N4CCOCC4)cc2)CC3)CC1 (single isomer, unassigned; (+)) [Example 76, (+)-8-(4-Methyl-piperazin-1-yl)-chroman-2-carboxylic Acid (4-morpholin-4-yl-phenyl)-amide]",206 to 207 °C
6,"CN1CCN(c2cccc3c2OC(C(=O)Nc2ccc(N4CCOCC4)cc2)CC3)CC1 (single isomer, unassigned; (-)) [Example 77, (−)-8-(4-Methyl-piperazin-1-yl)-chroman-2-carboxylic Acid (4-morpholin-4-yl-phenyl)-amide]",205.5 to 207 °C
7,"CN1CCN(c2cccc3c(=O)cc(C(=O)Nc4ccc(N5CCOCC5)cc4)oc23)CC1 [Example 1, 8-(4-methyl-1-piperazinyl)-N-[4-(4-morpholinyl)phenyl]-4-oxo-4H-chromene-2-carboxamide]",217 to 218 °C (dec.)
8,"CN1CCN(c2cccc3c(=O)cc(-c4nc5ccc(N6CCOCC6)cc5o4)oc23)CC1 [Example 21, 8-(4-Methyl-piperazin-1-yl)-2-(6-morpholin-4-yl-benzooxazol-2-yl)-chromen-4-one]",158.1 to 158.8 °C
9,"CN1CCN(c2cccc3c(=O)cc(C(=O)Nc4ccc(N5CCOCC5)cc4O)oc23)CC1 [Example 22, 8-(4-Methyl-piperazin-1-yl)-4-oxo-4H-chromene-2-carboxylic Acid (2-hydroxy-4-morpholin-4-yl-phenyl)-amide]",248.4 to 249.6 °C
10,"COc1cc(N2CCN(C)CC2)c2oc(C(=O)Nc3ccc(N4CCOCC4)cc3)cc(=O)c2c1 [Example 31, 6-Methoxy-8-(4-methyl-piperazin-1-yl)-4-oxo-4H-chromene-2-carboxylic acid (4-morpholin-4-yl-phenyl)-amide]",234 to 236 °C
11,"COc1cc(N2CCN(C)CC2)c2oc(C(=O)Nc3ccc(N4CCN(C(=O)CCO)CC4)cc3)cc(=O)c2c1 [Example 68, 6-Methoxy-8-(4-methyl-piperazin-1-yl)-4-oxo-4H-chromene-2-carboxylic Acid {4-[4-(3-hydroxy-propanoyl)-piperazin-1-yl]-phenyl}-amide]",195 to 197 °C
12,CCS(=O)(=O)N1CCN(c2ccc(NC(=O)c3cc(=O)c4cc(F)cc(N5CCN(C)CC5)c4o3)cc2)CC1 [Example 71],233 to 234 °C
13,"CN1CCN(c2cc(F)cc3c(=O)cc(C(=O)Nc4ccc(N5CCN(C(=O)CCO)CC5)cc4)oc23)CC1 [Example 73, 6-Fluoro-8-(4-methyl-piperazin-1-yl)-4-oxo-4H-chromene-2-carboxylic Acid {4-[4-(3-hydroxy-propanoyl)-piperazin-1-yl]-phenyl}-amide]",195 to 199 °C
14,"CCNC(=O)N1CCN(c2ccc(NC(=O)c3cc(=O)c4cc(F)cc(N5CCN(C)CC5)c4o3)cc2)CC1 [Example 81, 4-[4-({1-[6-Fluoro-8-(4-methyl-piperazin-1-yl)-4-oxo-4H-chromen-2-yl]-methanoyl}-amino)-phenyl]-piperazine-1-carboxylic Acid Ethylamide]",236 to 238 °C

# Test system: 5-HT1B receptors and 5-HT1D receptors
# Experiment: Radioligand competition binding with [3H]-GR125743 on membranes of transfected CHO cells
# Conditions: not given
# Excerpt: Other assays that may be used to measure for example affinity of compounds of the present invention for 5HT1B and 5HT1D receptors are described in J. Med. Chem 41:1218-1235, 1228 (1998) and J. Med. Chem 42:4981-5001, (1999) and incorporated by reference herein. These assays may be used with some modifications: Frozen membrane preparations of a stably transfected chinese hamster ovary (CHO) cell line expressing 5-HT1B receptors and 5-HT1D receptors are thawed rapidly, briefly vortexed, and diluted in assay buffer (AB) containing 50 mM Tris-HCl, 4 mM MgCl2, 4 mM CaCl2, 1 mM EDTA, and adjusted to pH 7.4 with NaOH. Final protein concentrations are—0.185 mg/ml for 5-HT1B, and 0.4 mg/ml for 5-HT1D membranes. Test compounds are evaluated in competition assays using [^3H]-GR125743 (Amersham). The ligand concentration in both assays was 0.27 nM. […] The 5-HT1B and 5-HT1D assays are performed simultaneously on one 96-well assay plate, one drug/compound per plate. Ten serial dilutions (1 uM to 4 pM, final concentration) of compound are prepared in DMSO from 10 mM stock solutions. Incubation mixtures are prepared in quadruplicate in 96-deep well assay plates (Matrix 1 ml). […] The plates are then counted on a Packard TopCount to determine CPM's per well. Ki values are determined for each test compound utilizing the graphic and analytical software package, GraphPad Prism. […]
row,SMILES,Kd [pM]
1,COc1ccc(NC(=O)c2ccc(-c3ccncc3)c(C)c2)cc1N1CCN(C)CC1 [[^3H]-GR125743],150 to 250

# Molecular target: 5-HT1B and 5HT1D receptors
# Experiment: not given
# Conditions: saturation studies, guinea pig cortex; 'may result in a measurement of'; read-out: Kd value of [3H]GR125743; cited from earlier work
row,SMILES,Kd [pM]
1,COc1ccc(NC(=O)c2ccc(-c3ccncc3)c(C)c2)cc1N1CCN(C)CC1 [[^3H]-GR125743],46 ± 4

# Test system: Hartley guinea pigs
# Experiment: Learned helplessness test
# Assay type: in vivo, guinea pig
# Conditions: antidepressant/antianxiety activity
# Excerpt: The utility of the compounds for example to treat depression may be shown via a learned helplessness test in guinea pigs, which is used extensively as correlative to antidepressant activity in humans. The learned helplessness test may be carried out as follows: Seventy male Hartley guinea pigs, each weighing about 350-425 gm are fed ad lib, and are housed under a 12-hour light/dark cycle. The procedure consists of two phases: The induction phase and the avoidance training phase. In the induction phase, subjects are placed into standard shuttle cages (20 L×16 W×21 centimeters H) which are fitted with a grid floor. Electrical stimulation (1.25 mA, 10 sec duration) is delivered to the floor of the cage every 90-sec during 1 hour daily sessions. Subjects have no opportunity to escape or to avoid shocks. Induction is conducted for 2 consecutive days.
# In avoidance training, testing is also conducted in the shuttle cages, except that the subjects are not returned to the same chamber in which induction had occurred. Additionally, all cages are fitted with a partition with an arch in the center of the cage, through which animals can pass between the left and right halves of the cage. The procedure employed is a standard shuttle avoidance procedure in which a compound, conditioned stimulus (a 10-sec presentation of a tone and turning on of a lamp on the side of the cage that the guinea pig was occupying) serves to indicate presentation of electrical current to the floor of the cage. Shock is presented for a 5 sec period, 5 sec after initiation of the conditioned stimulus. Entry into the opposite side of the shuttle cage via the arched partition prior to shock onset results in the end of the trial (avoidance response). If shock is delivered, entry into the opposite side of the cage results in termination of the shock and CS (escape). Reversal of learned helplessness in the induction subjects correlates to antidepressant activity of the test compound.
# Avoidance training, 45-min in duration, is conducted on 2 consecutive days, beginning 48 hr after the final induction session. Seventy subjects are assigned to 1 of 6 groups of 11-12 animals. The groups are as follows:
# Groups 2-6 are given induction and avoidance training sessions. Injections are administered immediately following induction sessions and 1 hour prior to avoidance training sessions. A second injection is administered 7-8 hours following the first injection, for a total of 9 injections administered over 5 days. No injections are administered following the final avoidance training session.
# Compounds of the present invention may be administered in a volume of 1 mL/kg bwt. Imipramine is dissolved in DI water. The compounds are dissolved in DI water, to which was added a few drops of lactic acid (pH 5.5). […]
row,SMILES,activity in the learned helplessness assay
1,"COc1cc(N2CCN(C)CC2)c2oc(C(=O)Nc3ccc(N4CCOCC4)cc3)cc(=O)c2c1 [Example 31, 6-Methoxy-8-(4-methyl-piperazin-1-yl)-4-oxo-4H-chromene-2-carboxylic acid (4-morpholin-4-yl-phenyl)-amide]",demonstrate activity
2,"CCC(=O)N1CCN(c2ccc(NC(=O)c3cc(=O)c4cc(OC)cc(N5CCN(C)CC5)c4o3)cc2)CC1 [Example 44, 6-Methoxy-8-(4-methyl-piperazin-1-yl)-4-oxo-4H-chromene-2-carboxylic Acid [4-(4-propionyl-piperazin-1-yl)-phenyl]-amide]",demonstrate activity
3,CCS(=O)(=O)N1CCN(c2ccc(NC(=O)c3cc(=O)c4cc(F)cc(N5CCN(C)CC5)c4o3)cc2)CC1 [Example 71],demonstrate activity
4,"CCC(=O)N1CCN(c2ccc(NC(=O)c3cc(=O)c4cc(F)cc(N5CCN(C)CC5)c4o3)cc2)CC1 [Example 72, 6-flouro-8-(4-methyl-piperazin-1-yl)-4-oxo-4H-chromene-2-carboxylic acid [4-(4-propionyl-piperazin-1-yl)-phenyl]-amide]",demonstrate activity
